{"source": "patent US20120034242A1", "about": "“CYTOKINE-EXPRESSING CELLULAR VACCINE COMBINATIONS” (BIOSANTE PHARMACEUTICALS, INC., priority 2003, published 2012)", "format_in_all_cases": "in vivo, mice", "key": {"[1]": {"test_system": "B16F10", "test": "B16F10 model: B16-GM vaccine plus Celebrex", "settings": "single agent; preliminary results", "experimental": "FIGS. 9A and 9B illustrate the results of a study in the B16F10 melanoma model wherein the effect of a cytokine-expressing cellular vaccine was evaluated in combination with Celebrex (Celecoxib: 50 mg/kg/day in the feed starting on Day −7). Mice were challenged on Day 0 with 1×10^5 live B16F10 cells at a dorsal location and were vaccinated on Day 3 with 1×10^6 irradiated dB16gmtd cells at a ventral location."}, "[2]": {"test_system": "ovalbumin-specific TCR transgenic T cells (OT-1)", "test": "B16 ovalbumin model: tracking of ovalbumin-specific TCR transgenic T cells (OT-1)", "settings": "data not shown", "source_text": "B16.ova and B16.GM.ova tumors are B16 cells or B16 cells expressing GM-CSF that were modified to express membrane bound ovalbumin. Ovalbumin acts as a surrogate tumor associated antigen on the tumor cells used for challenge as well as on the vaccine cells. Ovalbumin-specific T cells are used to track “tumor specific” T cell responses in the presence or absence of cells expressing GM-CSF (B16.GM-ova) alone or in combination with another cancer therapeutic agent. An antibody specifically recognizing the T-cell receptor of the ovalbumin specific T-cells is used to follow these “tumor-specific” T-cells. This antibody can be used to monitor the expansion of these tumor-specific T-cells and their activation status following various vaccination regiments. In one exemplary experimental approach, mice received via adoptive transfer ovalbumin-specific T-cells on day −2, are challenged with B16F10.ova on day 0, are vaccinated with B16F10.GM-ova on day 3 and then treated with at least one additional cancer therapeutic agent such as taxotere on day 5 and 9 (6 mg/kg), followed by monitoring of OVA-specific T cells at various time points after vaccination."}, "[3]": {"test_system": "B16 tumor", "test": "B16 melanoma model: B16-GM vaccine plus docetaxel", "experimental": "FIG. 8A illustrates the results of a study in the B16F10 melanoma model wherein the effect of 3 IV injections of docetaxel (total dose 18 mg/kg) administered on days 5, 9, and 13 was evaluated with respect to the percentage of mice that survived.\nFIG. 8B illustrates the study carried out to generate the data shown in FIGS. 8C and D. The study was performed in the B16F10 melanoma model and compared the efficacy of one cycle of a GM-CSF secreting tumor cell vaccine administration combined with one cycle of Taxotere administration to three cycles of vaccine plus three cycles of taxotere.\nFIGS. 8C and 8D illustrate the results of a study in the B16F10 melanoma model (carried out as described in FIG. 8B) wherein the effect of a cytokine-expressing cellular vaccine was evaluated in combination with docetaxel (total dose 18 mg/kg) administered on days 5, 9, and 13. Administration of docetaxel given between bi-weekly vaccinations (three vaccinations total; three cycles) increased the median survival of B16 tumor-bearing mice from 31 days to 52 days when compared to three B16-GM vaccinations alone. […]\nThe combination of docetaxel and a GM-CSF-secreting B16F10 tumor cell (B16-GM) vaccine was evaluated in the B16 melanoma model. […]"}}}
{"smiles": "Cc1ccc(-c2cc(C(F)(F)F)nn2-c2ccc(S(N)(=O)=O)cc2)cc1", "note": "[Celebrex, Celecoxib]", "values": [{"measurement": "effect on B16F10 tumor size and overall survival", "setting": "[1]", "result": "no effect"}]}
{"smiles": "CC(=O)O[C@@]12CO[C@@H]1C[C@H](O)[C@@]1(C)C(=O)[C@H](O)C3=C(C)[C@@H](OC(=O)[C@H](O)[C@@H](NC(=O)OC(C)(C)C)c4ccccc4)C[C@@](O)([C@@H](OC(=O)c4ccccc4)[C@H]21)C3(C)C", "note": "[docetaxel]", "values": [{"measurement": "survival of ovalbumin-specific TCR transgenic T cells (OT-1)", "setting": "[2]", "result": "prolongs"}, {"measurement": "inhibiting B16 tumor growth", "setting": "[3]; monotherapy, three IV injections, total dose 18 mg/kg", "result": "ineffective"}, {"measurement": "Median Survival", "setting": "[3]; one cycle: vaccine three days after challenge, docetaxel IV days 5, 9, 13 (total 18 mg/kg)", "result": 24, "unit": "days"}]}
